Reference: patent publication US7750011B2, “Diazabicyclic aryl derivatives and their medical use” (Neurosearch A/S, priority 2005, dated 2010)
Where a name gives a salt, the structure may show the parent alone.

Target: T1, α7-subtype of nicotinic receptors (Rattus norvegicus, UniProt Q05941)
T1 construct: Cerebral cortices from male Wistar rats (150-250 g) are homogenised; from tissue; host or cells: rat cerebral cortex membrane homogenate (male Wistar rats)
Assay: In vitro inhibition of 3H-α-bungarotoxine binding in rat brain
Details: rat cerebral cortex homogenate; 3H-α-bungarotoxine 2 nM; 2 hours at 37° C

T1 sequence (Q05941 23-502): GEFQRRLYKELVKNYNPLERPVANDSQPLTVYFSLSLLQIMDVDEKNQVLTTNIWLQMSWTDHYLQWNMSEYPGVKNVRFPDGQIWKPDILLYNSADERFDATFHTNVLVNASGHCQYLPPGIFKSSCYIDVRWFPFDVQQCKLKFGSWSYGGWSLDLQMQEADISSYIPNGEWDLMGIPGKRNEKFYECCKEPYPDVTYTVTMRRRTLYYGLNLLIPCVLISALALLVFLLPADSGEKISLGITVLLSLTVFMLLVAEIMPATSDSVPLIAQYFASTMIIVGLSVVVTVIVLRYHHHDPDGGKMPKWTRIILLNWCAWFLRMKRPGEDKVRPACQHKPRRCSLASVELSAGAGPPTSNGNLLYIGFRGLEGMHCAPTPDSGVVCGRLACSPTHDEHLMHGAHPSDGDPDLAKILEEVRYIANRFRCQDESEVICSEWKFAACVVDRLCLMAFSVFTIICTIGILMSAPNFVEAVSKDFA

CN1C[C@@H]2C[C@H]1CN2c1ccc(C#Cc2ccccc2)nn1 [Compound 2, 2-Methyl-5-(6-phenylethynyl-pyridazin-3-yl)-(1S,4S)-2,5-diaza-bicyclo[2.2.1]heptane fumaric acid salt]
IC50: 2000 nM
